The values below come from publication PMC12287680, “Efficient Acyloxymethylation of Psilocin and Other Tryptamines Yielding ACOM Prodrugs for Psychedelic‐Assisted Therapy” (Archiv Der Pharmazie, 2025).

Structures can show the parent of a compound that is named as a salt. Marks after values point to notes of the source that are not given here.

A short description of series [1]: Half-lives in PBS at 80°C (nonspecific hydrolysis). The class given is physicochemical. Conditions: for half-life at 50 µM: pH 7.3, PBS, 80°C, 5·10^−5 M, footnote: no replicates; for stability in buffer compared with plasma: buffer at 80°C versus plasma at 37°C, same concentration. On the procedure: As a measure of the drug release rate in the systemic blood circulation, we determined the half‐lives of 15, 16, and 23–26 in pooled human plasma. […] This illustrates that the drug release kinetics in human plasma are highly dependent upon the chosen acyl residue, which allows for tailoring the prodrug's pharmacokinetic profile to the therapeutic requirements. To assess the contribution of nonspecific hydrolysis to the observed kinetics, we incubated the prodrugs at the same concentration in the buffer used to dilute the plasma samples.
(§1) The kinetic studies were carried out by following the loss of substrate under the indicated conditions using HPLC‐UV. Pooled human plasma was obtained commercially (Biowest, France), while human saliva was freshly collected with the written informed consent of the saliva donors. In a typical run, the reaction was initiated by adding the prewarmed medium to a prewarmed aliquot of a 5 mM stock solution of the analyte in DMSO, resulting in a final concentration of 5·10^−5 M. A volume of 100 µL samples of the reaction mixture were taken at suitable intervals, and the reaction was either stopped by cooling to –20°C (PBS) or by protein precipitation using 2:1 (v/v) acetonitrile (saliva, plasma). Precipitates were removed by centrifugation and decantation prior to HPLC analysis. Pseudo‐first‐order rate constants for the observed degradation were determined from the slope of linear plots of ln(peak area) versus time. More detailed descriptions are provided in the Supporting Information.

The nature of series [2]: Half-lives in human saliva at 37°C. It counts as in vitro ADME. Conditions: fresh resting whole human saliva, mean of three measurements with fresh samples of three individuals, 5·10^−5 M, read-out: Half‐lives t 1/2 at 37°C in human Saliva. On the procedure: Finally, we studied the stability of the compounds in human saliva. […] In line with the literature, the stability of a given compound in human saliva varied considerably between subjects (Figure 7).
as §1

Details of series [3]: method as in earlier work. Conditions: rats, ref 10b, cited from earlier work.
Series [4] can be described thus: Half-lives in pooled human plasma at 37°C. The class given is in vitro ADME. Conditions: for half-lives t1/2 in human plasma (v/v) at 37°C: 100% plasma, [prodrug]0 =50 µM. The protocol:
As a measure of the drug release rate in the systemic blood circulation, we determined the half‐lives of 15, 16, and 23–26 in pooled human plasma. […] To assess the contribution of nonspecific hydrolysis to the observed kinetics, we incubated the prodrugs at the same concentration in the buffer used to dilute the plasma samples.
as §1
^a The release kinetics of the prodrugs were evaluated in vitro in analogy to the precedent literature.^[1] […] Pooled human blood plasma (Biowest, France) and sterile Dulbecco’s phosphate buffered saline (PBS) pH 7.3 (Sigma-Aldrich, Germany) were used for all experiments. In short, prewarmed (37°C) human plasma and prewarmed (37°C) prodrug (5 mM stock in DMSO) were gently mixed, which afforded a 50 µM solution of the prodrug in human plasma. Incubation was continued at 37°C, and 100 µL samples of the mixture were taken at appropriate time intervals. The samples were immediately quenched with acetonitrile (2:1), centrifuged, decanted, and analyzed via HPLC-UV. Half-lives were determined assuming first-order kinetics; specific values are the mean of triplicates ± standard deviation. For more details, please refer to the SI.

The nature of series [5]: Passive membrane permeability across an artificial membrane. The class given is in vitro ADME. Conditions: for Papp: PAMPA, pH 7.4, read-out: Passive membrane permeability Pe. The source says: As expected, all tested prodrugs have a high propensity for passive passage across an artificial membrane at pH 7.4 (≥ 8·10^−6 cm/s). […] The loss of the intramolecular hydrogen bond between the phenolic hydroxy group and the tertiary amino group upon O‐substitution appears to decrease the membrane permeability of the prodrugs in comparison to the parent drug. This effect is apparently not entirely compensated by the ACOM promoiety, which in itself is not completely apolar due to the acetal and ester oxygens. The intramolecular hydrogen bond may reduce the polarity of 4‐hydroxytryptamines by introducing a conformational restraint and thereby favoring conformations with a smaller polar surface area and a lower dipole moment and by decreasing hydrogen bonding to the aqueous solvent. In addition, the intramolecular hydrogen bond in 4‐hydroxytryptamines lowers the pK a of the amine and therefore shifts the protonation equilibrium toward the neutral species. The higher proportion of the uncharged species in 4‐hydroxytryptamines compared with their O‐substituted congeners further increases the difference in passive membrane permeability.
A general note: PAMPA measures passive passage across an artificial lipid membrane.

The conditions of series [6]: pH 7.4; cited from earlier work.
The conditions of series [7]: cited from earlier work.
For series [8] the following is noted: in DMSO; cited from earlier work.
[9] abbreviates: 100% (undiluted) pooled human plasma, 37°C, 100% pooled human plasma, 5·10^−5 M.
Setting [10] is: 10% pooled human plasma in PBS, pH 7.3, 37°C, 10% pooled human plasma diluted with PBS, 5·10^−5 M.
[11] abbreviates: diluted pooled human plasma, pH 7.3, even in diluted human plasma, read-out: half‐lives in human plasma.

Regarding `CC(=O)Oc1ccccc1C(=O)O` [ASA, Acetylsalicylic acid, reference compound], the half-life at 50 µM was 27.9 ± 0.3 min in series [1] and more than 60 min in series [2].

`CN(C)CCc1c[nH]c2cccc(OCOC(=O)C(C)(C)C)c12` [Compound 2]: the “detected systemic psilocin level” value in series [3] (peroral dosing) is given as “relatively low”. The “prodrug behaviour upon peroral dosing” value in series [3] is reported as “acts as a psilocin prodrug”.

Consider `CCN(C)CCc1cn(C(=O)OCc2ccccc2)c2cccc(O)c12` [Compound 15], for which the half-life at 50 µM in series [4] (setting [9]) is more than 5700 min. Besides, in series [4] (37°C), the “half-lives t1/2 in human plasma (v/v) at 37°C” value (“half-lives t1/2 in human plasma” below) was > 5700 (100%) min; the “drug release in undiluted human plasma during the observation period” value (“drug release” below) was “Neither the N‐carbamates 15 and 16 nor the sterically hindered pivaloyloxymethyl ethers 23 and 25 showed significant drug release”. For the same compound, the half-life at 50 µM in series [1] worked out at 136 ± 4 min.

`CN(C)CCc1cn(C(=O)OCc2ccccc2)c2cccc(O)c12` [Compound 16, 1‐Benzyloxycarbonyl‐4‐Hydroxy‐N,N‐Dimethyltryptamine] displayed a half-life at 50 µM in series [4] (setting [9]) of more than 5700 min. Moreover, in series [4] (37°C), the “half-lives t1/2 in human plasma” value is > 5700 (100%) min; the “drug release” value is “Neither the N‐carbamates 15 and 16 nor the sterically hindered pivaloyloxymethyl ethers 23 and 25 showed significant drug release”. Moreover, in series [1], the half-life at 50 µM is 184 ± 5 min.

Consider `CCN(C)CCc1c[nH]c2cccc(OCOC(=O)C(C)(C)C)c12` [Compound 23], for which the results for the half-life at 50 µM in series [4] (setting [9]), in series [1] and in series [2] were more than 240 min, 534 ± 12 min and less than 20 min, respectively. The “half-lives t1/2 in human plasma” value in series [4] (37°C) is reported as > 240 (100%) min. In series [4] (37°C), the “drug release” value is “Neither the N‐carbamates 15 and 16 nor the sterically hindered pivaloyloxymethyl ethers 23 and 25 showed significant drug release”. In addition, the Papp in series [5] is 9.7 ± 0.6 ×10⁻⁶ cm/s. Besides, in series [5] (pH 7.4), the “Passive membrane permeability R (%) (mass retention)” value (shortened to “Passive membrane permeability R (%)”) stood at 2%.

In the case of `CCCC(=O)OCOc1cccc2[nH]cc(CCN(C)CC)c12` [Compound 24], the half-life at 50 µM was 4.2 ± 0.1 min in series [4] (setting [10]), less than 5 min in series [4] (setting [11]), 73.3 ± 1.2 min in series [1] and less than 10 min in series [2]. In addition, the “stability in buffer compared with plasma” value in series [1] is on record as “significantly more stable in buffer than in plasma”. Besides, the Papp in series [5] turned out to be 8 ± 0.3 ×10⁻⁶ cm/s. In addition, the “Passive membrane permeability R (%)” value in series [5] (pH 7.4) came to 6%.

For the compound `CN(C)CCc1c[nH]c2cccc(OCOC(=O)C(C)(C)C)c12` [Compound 25], the results for the half-life at 50 µM in series [4] (setting [9]), in series [1] and in series [2] were more than 240 min, 458 ± 23 min and less than 20 min, respectively. Also, the “half-lives t1/2 in human plasma” value in series [4] (37°C) is listed as > 240 (100%)^b min. Moreover, the “chemical and plasma stability, in words” value in series [4] (in vitro) was “high chemical and plasma stability”. Further, the “drug release” value in series [4] (37°C) was “Neither the N‐carbamates 15 and 16 nor the sterically hindered pivaloyloxymethyl ethers 23 and 25 showed significant drug release”. In series [5], the Papp was found to be 9.1 ± 0.5 ×10⁻⁶ cm/s. In addition, the “Passive membrane permeability R (%)” value in series [5] (pH 7.4) is on record as 4%.

`CCCC(=O)OCOc1cccc2[nH]cc(CCN(C)C)c12` [Compound 26, 4‐n‐Butanoyloxymethyloxy‐N,N‐Dimethyltryptammonium Fumarate]: the half-life at 50 µM in series [4] (setting [10]) was 3.5 ± 0.8 min; in series [4] (setting [9]) it was 0.48 ± 0.1 min; in series [4] (setting [11]), less than 5 min; in series [1] it was 58.6 ± 3.5 min; in series [2], less than 10 min. The “stability in buffer compared with plasma” value in series [1] is “significantly more stable in buffer than in plasma”. Moreover, in series [5], the Papp worked out at 8.1 ± 0.8 ×10⁻⁶ cm/s. Moreover, the “Passive membrane permeability R (%)” value in series [5] (pH 7.4) was 7 ^e %.

As for `CCN(C)CCc1c[nH]c2cccc(O)c12` [Compound 30, reference compound], in series [5] (pH 7.4), the “Passive membrane permeability Pe” value is on record as 11 ± 1 10^−6cm/s; the “Passive membrane permeability R (%)” value amounted to 29%; the “mass retention (R%), in words” value was “remarkably high”. Further, the “membrane permeability, ranking” value in series [5] (pH 7.4, compared with the prodrugs) was “highest membrane permeability”.

Turning to `CN(C)CCc1c[nH]c2cccc(OP(=O)(O)O)c12` [psilocybin], the logD7.4 in series [6] was −0.89.

For `CNS(=O)(=O)Cc1ccc2[nH]cc(CCN(C)C)c2c1` [sumatriptan], the logP (as a rule, a log measure of how a compound divides between an organic and an aqueous phase) in series [7] was 0.93. Also, the “sulfonamide pKa” value in series [8] is ~ 17.5. For the same compound, in series [6], the logD7.4 is −1.3.
